Results reported in ChEMBL document CHEMBL3217570, “A class of novel AA-Trp-Trp-OBzl: synthesis, in vitro anti-proliferation, in vivo anti-tumor action, and intercalation mechanism” (Medchemcomm, 2011).
pIC50: −log10 of the molar value. Residues, ends and D or L forms follow the SMILES beside them. *: point of attachment. OBn = c1ccc(CO*)cc1

Legend:
CCRF S-180 [1] = assay: Antiproliferative activity against mouse S180 cells after 48 hrs by MTT assay; format: functional, cell-based; settings: CCRF S-180, 48 h
B16 = assay: Antiproliferative activity against mouse B16 cells after 48 hrs by MTT assay; format: functional, cell-based; settings: B16, 48 h
Mus musculus [2] = assay: Toxicity in mouse S180 cells allografted ICR mouse assessed as liver weight at 8.9 mg/kg, ip qd for 7 days relative to control; format: organism-based, CCRF S-180; set-up: dose 8.9 mg/kg, route intraperitoneal; settings: in vivo, 168 h
H22 = assay: Antiproliferative activity against mouse H22 cells after 48 hrs by MTT assay; format: functional, cell-based; settings: H22, 48 h
Mus musculus [3] = assay: Toxicity in mouse S180 cells allografted ICR mouse assessed as increase of body weight at 8.9 mg/kg, ip qd for 7 days relative to control; format: organism-based, CCRF S-180; set-up: dose 8.9 mg/kg, route intraperitoneal; settings: in vivo, 168 h
K562 = assay: Antiproliferative activity against human K562 cells after 48 hrs by MTT assay; format: functional, cell-based; settings: K562, 48 h
Mus musculus [4] = assay: Toxicity in mouse S180 cells allografted ICR mouse assessed as spleen index at 8.9 mg/kg, ip qd for 7 days relative to control; format: organism-based, CCRF S-180; set-up: dose 8.9 mg/kg, route intraperitoneal; settings: in vivo, 168 h
CCRF S-180 [5] = assay: Antitumor activity against mouse S180 cells allografted in ICR mouse assessed as tumor growth inhibition at 8.9 mg/kg, ip qd for 7 days relative to control; format: functional; settings: CCRF S-180, ip, 168 h, route intraperitoneal, read-out: TGI
Mus musculus [6] = assay: Toxicity in mouse S180 cells allografted ICR mouse assessed as kidney weight at 8.9 mg/kg, ip qd for 7 days relative to control; format: organism-based, CCRF S-180; set-up: dose 8.9 mg/kg, route intraperitoneal; settings: in vivo, 168 h
HepG2 = assay: Antiproliferative activity against human HepG2 cells after 48 hrs by MTT assay; format: functional, cell-based; settings: HepG2, 48 h
Mus musculus [7] = assay: Toxicity in mouse S180 cells allografted ICR mouse assessed as brain weight at 8.9 mg/kg, ip qd for 7 days relative to control; format: organism-based, CCRF S-180; set-up: dose 8.9 mg/kg, route intraperitoneal; settings: in vivo, 168 h

Row | Structure (SMILES) | pIC50 (CCRF S-180 [1]) | pIC50 (B16) | Activity (Mus musculus [2]) | pIC50 (H22) | Activity (Mus musculus [3]) | pIC50 (K562) | Activity (Mus musculus [4]) | inhibition in vivo at 8.9 mg/kg (CCRF S-180 [5]) [%] | Activity (Mus musculus [6]) | pIC50 (HepG2) | Activity (Mus musculus [7])
1 | O=C(N[C@@H](Cc1c[nH]c2ccccc12)C(=O)N[C@@H](Cc1c[nH]c2ccccc12)C(=O)OCc1ccccc1)[C@@H]1CCCN1 (H-Pro-Trp-Trp-OBn) | 4.12 | 4.03 | Non-toxic | 4.04 | Toxic | 4.04 | Non-toxic | 12.5 | Non-toxic | 4.04 | Non-toxic
2 | C[C@H](N)C(=O)N[C@@H](Cc1c[nH]c2ccccc12)C(=O)N[C@@H](Cc1c[nH]c2ccccc12)C(=O)OCc1ccccc1 (H-Ala-Trp-Trp-OBn) | 4.14 | 3.88 | Non-toxic | 4.07 | Toxic | 3.93 | Non-toxic | -11.4 | Non-toxic | 4.30 | Non-toxic
3 | N[C@@H](CC(=O)O)C(=O)N[C@@H](Cc1c[nH]c2ccccc12)C(=O)N[C@@H](Cc1c[nH]c2ccccc12)C(=O)OCc1ccccc1 (H-Asp-Trp-Trp-OBn) | 3.79 | 3.80 | Non-toxic | 3.97 | Toxic | 3.77 | Non-toxic | -8.85 | Non-toxic | 3.91 | Non-toxic
4 | NCCCC[C@H](N)C(=O)N[C@@H](Cc1c[nH]c2ccccc12)C(=O)N[C@@H](Cc1c[nH]c2ccccc12)C(=O)OCc1ccccc1 (H-Lys-Trp-Trp-OBn) | 4.48 | 4.24 | Non-toxic | 4.48 | Toxic | 4.46 | Non-toxic | 15 | Non-toxic | 4.59 | Non-toxic
5 | NCC(=O)N[C@@H](Cc1c[nH]c2ccccc12)C(=O)N[C@@H](Cc1c[nH]c2ccccc12)C(=O)OCc1ccccc1 (H-Gly-Trp-Trp-OBn) | 4.10 | 3.80 | Non-toxic | 4.29 | Toxic | 4.05 | Non-toxic | -6.51 | Non-toxic | 4.23 | Non-toxic
6 | CC(C)C[C@H](N)C(=O)N[C@@H](Cc1c[nH]c2ccccc12)C(=O)N[C@@H](Cc1c[nH]c2ccccc12)C(=O)OCc1ccccc1 (H-Leu-Trp-Trp-OBn) | 4.43 | 4.27 | Non-toxic | 4.44 | Toxic | 4.42 | Non-toxic | 13.8 | Non-toxic | 4.38 | Non-toxic
7 | N[C@@H](Cc1cnc[nH]1)C(=O)N[C@@H](Cc1c[nH]c2ccccc12)C(=O)N[C@@H](Cc1c[nH]c2ccccc12)C(=O)OCc1ccccc1 (H-His-Trp-Trp-OBn) | 4.08 | 4.00 | Non-toxic | 4.02 | Toxic | 4.00 | Non-toxic | 11.9 | Non-toxic | 4.01 | Non-toxic
8 | C[C@@H](O)[C@H](N)C(=O)N[C@@H](Cc1c[nH]c2ccccc12)C(=O)N[C@@H](Cc1c[nH]c2ccccc12)C(=O)OCc1ccccc1 (H-Thr-Trp-Trp-OBn) | 3.81 | 3.74 | Non-toxic | 3.81 | Toxic | 3.76 | Non-toxic | -7.66 | Non-toxic | 3.81 | Non-toxic
